Blank lines part the entries; values can stand above or below the compound they belong to.
Legend:
[1] = system: MM cells; assay: IC50 concentrations of HDAC inhibitors in MM cells; type: cell-based; details: Homo sapiens
[2] = system: U266, RPMI, and MM1S cells; assay: Apoptosis (annexin) and necrosis (propidium iodide) by HDAC inhibitors, FIG. 15; type: cell-based, human
Procedure: Apoptosis was measured by annexin staining while cell necrosis was measured by propidium iodide staining.
CD44 surface expression was analyzed by staining cells with CD44-FITC antibody (BD Biosciences) for 30 min. in the dark, at room temperature. Apoptosis was measured by Annexin V-FITC and Propidium Iodide (PI) (Clontech) staining for 15 min. in the dark, at room temperature and data immediately acquired on a Beckman Coulter FC500 (Beckman Coulter) machine. Analysis was conducted using the FlowJo Software vX.0.7 (Tree Star Inc.). For the multiparametric analysis, the bone marrow samples were stained with CD38-PE (347687; BD Bioscience), CD138-APC (347193; BD Bioscience), CD45-ECD (A07784; Beckman Coulter), CD44-FITC (BD Bioscience) and AnnexinV-FITC (Clontech) for 30 minutes, washed with PBS and immediately analyzed with Gallios cytometer (Beckman Coulter).

[3] = system: MM.1S GFP/Luc+ cells; assay: NOD-SCID mice engrafted i.v. with MM.1S GFP/Luc+ cells, oral AR-42 + pomalidomide; type: in vivo; details: 25 mg/kg each
Description: To investigate whether the oral combination treatment of AR-42 and pomalidomide improves the survival of mice engrafted with MM cells, 40 NOD-SCID mice were engrafted with 10×10^6 MM.1S GFP/Luc+ cells by intravenous injection (IV). Ten days later, mice with the same tumor burden (as calculated by luminescence) (FIG. 14C) were randomly divided into 4 treatment groups (10 mice per group): AR-42 alone, pomalidomide alone, AR-42+pomalidomide, and vehicle control (Ctrl, 8% DMSO in PBS). Mice were treated by oral administration (gavage) daily with pomalidomide (25 mg/kg) or Ctrl, and three times a week (Mon-Tues-Fri) with AR-42 (25 mg/kg) or Ctrl, until elimination criteria, including paralysis, extreme weight loss and dehydration, were reached.

IC50 [1]: 10 nM
SMILES: Cc1[nH]c2ccccc2c1CCNCc1ccc(/C=C/C(=O)NO)cc1 [LBH, reference compound]
dose response curve ([2]; data not shown): No dose response curve could be obtained

SMILES: Nc1cccc2c1C(=O)N(C1CCC(=O)NC1=O)C2=O (stereo not shown) [pomalidomide, reference compound]
median survival [3]: 42 days

SMILES: O=C(CCCCCCC(=O)Nc1ccccc1)NO [SAHA, suberoylanilide hydroxamic acid, reference compound]
apoptosis (annexin staining) ([2]; 24 and 48 hours, 0.25, 0.5, and 1 μM): limited impact on apoptosis

From patent publication US10022342B2, “Methods and compositions for treating multiple myeloma” (Ohio State Innovation Foundation, priority 2015, dated 2018)
